In PMC6385123, “Design, Synthesis, Anticancer Evaluation and Molecular Modeling of Novel Estrogen Derivatives” (Molecules, 2019):
Read-outs that look alike come from different tables or passages of the source.

Key:
MCF-7 cells = test: In vitro cytotoxic activity, MTT assay, MCF-7; type: cell-based, human; details: MTT assay, MCF-7 cell line, read-out: IC50 (Mean ± SEM) MCF-7
Protocol: (§1) MCF-7 (human breast cancer) cells, obtained from Sigma-Aldrich Chemie GmbH, Taufkirchen, Germany, were propagated in RPMI-1640 supplemented with 10% heat inactivated FBS, 2 mM L-glutamine, and 1% standard antibiotic solution. Cells were incubated in a 5% CO2 humidified incubator at 37 °C and passaged bi-weekly. The in vitro anti-proliferative activity of the newly synthesized derivatives was assayed using standard MTT technique. Results were expressed as IC50. Experiments were repeated at least in triplicate, to obtain good reproducibility between replicate wells with standard errors below 10%. Furthermore, the cytotoxic effects of the prepared derivatives were evaluated against normal nonmalignant cells, non-tumorigenic MCF-10A, in order to find out if the synthesized derivatives have toxicity against normal cells. Additionally, results were compared with reference compounds (cisplatin and milaplatin) as positive controls.

MCF-10A cells = test: In vitro cytotoxicity against normal non-tumorigenic cells, MTT assay; type: cell-based; details: normal non-tumorigenic MCF-10A cells, read-out: IC50 (Mean ± SEM) MCF-10A
Protocol: as §1

[1] = target: T1, p53 ubiquitination (GST-tagged HDM2) (Homo sapiens, UniProt Q00987); test: In vitro p53 ubiquitination assay; type: biochemical; details: GST-tagged HDM2, p53, ubiquitin, E1 and E2 (UbcH5B); read-out: IC50 (Mean ± SEM) In Vitro p53 Ubiquitination
T1 construct: GS4b-MDM2 RING beads were prepared as above and were used in place of the full-length MDM2; made in house; host or cells: Escherichia coli BL21
T1 sequence (Q00987 whole entry): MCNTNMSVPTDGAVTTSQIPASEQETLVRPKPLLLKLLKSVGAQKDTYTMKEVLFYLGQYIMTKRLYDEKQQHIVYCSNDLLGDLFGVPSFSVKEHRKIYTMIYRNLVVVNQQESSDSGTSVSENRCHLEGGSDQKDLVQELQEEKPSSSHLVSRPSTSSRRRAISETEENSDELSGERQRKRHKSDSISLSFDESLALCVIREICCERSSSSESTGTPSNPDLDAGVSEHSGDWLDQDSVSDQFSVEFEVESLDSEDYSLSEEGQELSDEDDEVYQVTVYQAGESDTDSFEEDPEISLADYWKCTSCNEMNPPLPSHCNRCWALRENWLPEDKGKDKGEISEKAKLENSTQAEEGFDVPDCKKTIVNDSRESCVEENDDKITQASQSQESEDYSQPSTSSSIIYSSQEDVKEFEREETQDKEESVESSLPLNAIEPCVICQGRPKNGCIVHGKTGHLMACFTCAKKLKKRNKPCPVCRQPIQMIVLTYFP
Protocol: Different prepared derivatives were evaluated for their inhibitory potential against p53 ubiquitination. The method is based on incubating different compounds with GST-tagged HDM2, immobilized on glutathione-Sepharose, p53, ubiquitin, E1 and E2 (UbcH5B) ligases. The buffer contained ATP as detailed by Gomha and Abdelaziz. The reaction products were then resolved by SDSPAGE and p53 ubiquitination and were quantified by Western blotting using an anti-p53 antibody.
Briefly, rGSH-S-transferase-tagged MDM2 (GST-MDM2) was expressed in Escherichia coli BL21 cells using 1 mM isopropyl-thio-b-D-galactoside for 3 h. The enzyme was then purified on glutathione-sepharose beads (Amersham). Beads were washed with Tris (pH 7.5). The reaction contained fluorescent ubiquitin (5 µg; Invitrogen), 50 ng mammalian E1 (Enzo), 200 ng human rUbcH5B E2 (Enzo), 200 ng His-p53 (Enzo) and buffer [50 mM Tris pH 8,2 mM dithiothreitol, 5 mM MgCl2, 2 mM adenosine triphosphate (ATP)]. The MPD-compound or control mixture was dose-titrated onto GS4b-MDM2 beads. Incubation at 37 °C was followed by shaking (1200 rpm, 1 h). The reaction was terminated with 3× sodium dodecyl sulfate sample buffer. Finally, unbound fluorescent ubiquitin was drained and the total fluorescent ubiquitin signal was measured using a plate reader (Safire).
The procedure was performed similar to the aforementioned protocol except that 5 µg unlabeled ubiquitin (Enzo) was used. Following incubation, resolving of reaction products was performed using sodium dodecyl sulfate PGE. Analysis was done by western blotting using anti-p53 DO-1. For the MDM2 RING auto-ubiquitination assay, GS4b-MDM2 RING beads were prepared as above and were used in place of the full-length MDM2.

p53 ubiquitination = test: In vivo ubiquitination of p53 (transfected cells); type: cell-based; details: cells transfected with p53, MDM2, HIS-ubiquitin; exposed 6 h; read-out: IC50 (Mean ± SEM) In Vivo p53 Ubiquitination
Protocol: In vivo ubiquitination of p53 was assayed according to [38] Cells were grown for 24 h (50% confluency) before transfection of 1 µg p53, 4 µg MDM2 and 1 µg HIS-ubiquitin with Gene Juice reagent. Grown for another 20 h, cells were exposed to prepared derivatives or controls for 6 h and MG132 for 4 h, then washed and collected in PBS, where 5% of the solution was kept as an input. The remaining pelleted cells (95% after centrifugation) were lysed in 700 µL of ubiquitin buffer A (6 M guanidinium HCl, 300 mM NaCl, 50 mM phosphate pH 8.0, 100 µg/mL N-ethylmaleimide), and sonicated for 5 min at 20% amplitude. Lysates were incubated overnight with Invitrogen Dynabeads His-Tag matrix and washed once with ubiquitin buffers A, B, C and phosphate buffered saline (ubiquitin buffer B: Mix ubiquitin buffer A and ubiquitin buffer C 1:1; ubiquitin buffer C: 300 mM NaCl, 50 mM phosphate pH 8.0, 100 µg/mL N-ethylmaleimide). The washed lysates were resolved by 8% sodium dodecyl sulfate–polyacrylamide gel electrophoresis, followed by immunoblotting with a p53 (DO-1) antibody.

EGFR = EGFR (Homo sapiens, UniProt P00533); test: EGFR kinase inhibition assay; type: biochemical; details: 8 μM ATP, poly(Glu,Tyr)4:1 substrate; read-out: IC50 (Mean ± SEM) EGFR
Chain of EGFR (P00533 25-1210): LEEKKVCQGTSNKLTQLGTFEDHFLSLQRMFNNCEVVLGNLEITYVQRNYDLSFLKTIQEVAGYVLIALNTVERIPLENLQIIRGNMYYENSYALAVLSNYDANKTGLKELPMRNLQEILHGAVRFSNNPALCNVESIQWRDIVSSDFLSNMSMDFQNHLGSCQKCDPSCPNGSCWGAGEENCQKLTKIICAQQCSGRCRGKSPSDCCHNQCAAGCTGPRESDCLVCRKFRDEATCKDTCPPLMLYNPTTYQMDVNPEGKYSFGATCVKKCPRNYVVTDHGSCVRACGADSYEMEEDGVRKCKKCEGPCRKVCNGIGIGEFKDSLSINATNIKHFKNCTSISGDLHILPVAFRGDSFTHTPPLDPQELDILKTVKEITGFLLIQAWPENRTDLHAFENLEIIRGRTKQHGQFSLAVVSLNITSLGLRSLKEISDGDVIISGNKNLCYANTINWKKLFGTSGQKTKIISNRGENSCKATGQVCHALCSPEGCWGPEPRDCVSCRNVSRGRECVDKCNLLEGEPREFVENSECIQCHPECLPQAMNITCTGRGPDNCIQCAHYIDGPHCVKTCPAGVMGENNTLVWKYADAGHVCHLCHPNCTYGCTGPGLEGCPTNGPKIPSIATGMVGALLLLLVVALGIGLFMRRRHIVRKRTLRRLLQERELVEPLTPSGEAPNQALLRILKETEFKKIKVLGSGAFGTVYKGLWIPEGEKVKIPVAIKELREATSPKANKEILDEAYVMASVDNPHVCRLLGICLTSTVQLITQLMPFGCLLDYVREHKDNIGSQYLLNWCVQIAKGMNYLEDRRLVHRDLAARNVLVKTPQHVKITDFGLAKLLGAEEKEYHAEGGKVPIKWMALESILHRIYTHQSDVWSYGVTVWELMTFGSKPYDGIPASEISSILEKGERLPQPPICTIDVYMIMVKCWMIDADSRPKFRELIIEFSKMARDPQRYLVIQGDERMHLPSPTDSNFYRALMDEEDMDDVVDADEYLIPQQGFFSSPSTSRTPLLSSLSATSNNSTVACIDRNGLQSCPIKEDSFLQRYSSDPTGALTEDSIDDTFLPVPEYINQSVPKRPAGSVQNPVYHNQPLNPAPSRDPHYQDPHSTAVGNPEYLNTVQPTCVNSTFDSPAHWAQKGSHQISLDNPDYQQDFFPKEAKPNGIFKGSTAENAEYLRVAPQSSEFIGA
Protocol: (§2) The EGFR and VEGFR-2 kinase activities were assayed as previously described. The assay was performed in 96-well plates pre-coated with 20 μg mL^−1 poly (Glu, Tyr)4:1 (Sigma-Aldrich Chemie GmbH, Taufkirchen, Germany) as a substrate. In each well, 85 μL of an 8 μM ATP solution and 10 μL of the compound were added at varying concentrations. Experiments were repeated three times. Reactions started with 5 μL of different kinases and incubation for 1 h at 37 °C. Plates were 3X-washed with PBS/0.1% Tween 20. Accordingly, 100 μL of anti-phosphotyrosine (PY99; 1:500 dilutions) antibody was added, and plates were incubated for another hour at room temperature. Plates were then 3X-washed, and addition of goat anti-mouse IgG horseradish peroxidase (100 μL; 1:2000 dilution) diluted in T-PBS containing 5 mg mL^−1 BSA followed. Plates were further incubated at room temperature for another hour, and then 3X-washed. Finally, 100 μL (developing solution, 0.03% H2O2, 2 mg mL^−1 o-phenylenediamine/citrate buffer, 0.1 M, pH 5.5) was added and incubation continued until color development. The reaction was stopped by 100 μL of 2M H2SO4, and the absorption was measured at 492 nm using a multiwell spectrophotometer (VERSAmax™). The inhibition rate (%) was calculated using the equation:Inhibition rate (%) = [1 − (A492/A492Control)] × 100%(1)

VEGFR-2 = VEGFR-2 (Homo sapiens, UniProt P35968); test: VEGFR-2 kinase inhibition assay; type: biochemical; details: 8 μM ATP, poly(Glu,Tyr)4:1 substrate; read-out: IC50 (Mean ± SEM) VEGFR-2
Chain of VEGFR-2 (P35968 20-1356): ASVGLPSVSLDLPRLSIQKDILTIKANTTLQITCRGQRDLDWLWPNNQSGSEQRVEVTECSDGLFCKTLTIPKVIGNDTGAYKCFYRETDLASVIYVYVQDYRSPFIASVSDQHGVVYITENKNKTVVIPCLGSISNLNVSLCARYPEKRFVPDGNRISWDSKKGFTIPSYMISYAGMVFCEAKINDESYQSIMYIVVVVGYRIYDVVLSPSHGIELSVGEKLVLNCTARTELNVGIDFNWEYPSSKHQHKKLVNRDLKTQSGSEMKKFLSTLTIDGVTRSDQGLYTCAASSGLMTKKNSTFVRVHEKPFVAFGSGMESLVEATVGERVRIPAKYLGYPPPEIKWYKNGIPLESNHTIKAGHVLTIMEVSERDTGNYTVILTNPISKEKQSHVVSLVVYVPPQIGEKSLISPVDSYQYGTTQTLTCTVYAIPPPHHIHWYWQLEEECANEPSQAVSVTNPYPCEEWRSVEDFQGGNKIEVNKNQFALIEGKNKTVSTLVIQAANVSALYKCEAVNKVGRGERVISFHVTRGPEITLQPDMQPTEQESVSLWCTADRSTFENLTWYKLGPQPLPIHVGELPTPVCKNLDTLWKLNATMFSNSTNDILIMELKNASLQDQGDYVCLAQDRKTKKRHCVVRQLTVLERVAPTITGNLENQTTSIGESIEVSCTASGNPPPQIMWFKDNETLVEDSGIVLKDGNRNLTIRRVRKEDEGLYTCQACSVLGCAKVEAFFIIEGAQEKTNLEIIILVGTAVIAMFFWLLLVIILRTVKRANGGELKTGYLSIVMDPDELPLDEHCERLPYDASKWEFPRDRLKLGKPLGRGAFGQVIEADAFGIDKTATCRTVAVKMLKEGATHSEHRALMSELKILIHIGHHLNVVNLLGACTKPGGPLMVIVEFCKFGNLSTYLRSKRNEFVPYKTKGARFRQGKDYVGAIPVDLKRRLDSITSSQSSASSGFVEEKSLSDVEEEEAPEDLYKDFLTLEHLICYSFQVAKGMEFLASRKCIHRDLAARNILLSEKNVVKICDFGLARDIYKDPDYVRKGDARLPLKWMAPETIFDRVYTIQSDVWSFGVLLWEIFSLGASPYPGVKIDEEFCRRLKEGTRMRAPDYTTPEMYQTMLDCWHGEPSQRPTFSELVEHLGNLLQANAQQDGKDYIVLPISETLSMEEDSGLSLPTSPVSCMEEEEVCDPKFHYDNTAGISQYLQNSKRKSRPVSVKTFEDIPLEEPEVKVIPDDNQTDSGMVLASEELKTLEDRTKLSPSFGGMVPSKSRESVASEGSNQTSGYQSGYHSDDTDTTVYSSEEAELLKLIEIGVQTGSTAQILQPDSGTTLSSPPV
Protocol: as §2

Molecule	IC50 (MCF-7 cells)	IC50 (MCF-10A cells)	IC50 (MCF-7 cells; Homo sapiens, MCF7)	IC50 (MCF-10A cells; Homo sapiens)	IC50 [1]	IC50 (p53 ubiquitination)	IC50 (EGFR)	IC50 (VEGFR-2)	melting point
N.N.[Cl][Pt][Cl] [Cisplatin, reference compound]	13.34 ± 0.11 µM	9.55 ± 0.54 µM							
CC12CCC3c4ccc(O)cc4CCC3C1CC1=C2NC(=O)NC1c1ccccc1Cl (centres unmarked) [Compound 3a, 2′-Oxo-6′-(2-chlorophenyl)-estra-1(10),2,4,16(17)-tetraien-[17,16-d]pyrimidino-3-ol]			35.7 ± 0.4 µM	401 ± 11.6 µM	47.6 ± 0.6 µM	0.6 ± 0.0086 µM	0.127 ± 0.0037 µM	0.047 ± 0.003 µM	266 to 268 °C
CC12CCC3c4ccc(O)cc4CCC3C1CC1=C2NC(=O)NC1c1ccc(Cl)cc1 (centres unmarked) [Compound 3b, Oxo-6′-(4-chlorophenyl)-estra-1(10),2,4,16(17)-tetraien-[17,16-d]pyrimidino-3-ols]			38.6 ± 0.87 µM	422 ± 13.8 µM	53.6 ± 0.78 µM	0.63 ± 0.0095 µM	0.155 ± 0.0051 µM	0.048 ± 0.0014 µM	308 to 310 °C
CC12CCC3c4ccc(O)cc4CCC3C1CC1=C2NC(=S)NC1c1ccccc1Cl (centres unmarked) [Compound 4a, 2′-Thione-6′-(2-chlorophenyl)-estra-1(10),2,4,16(17)-tetraien-[17,16-d]pyrimidine-3-ol]			28.64 ± 0.28 µM	302 ± 8.86 µM	36.6 ± 0.58 µM	0.45 ± 0.0085 µM	0.095 ± 0.0028 µM	0.037 ± 0.0026 µM	290 to 292 °C
CC12CCC3c4ccc(O)cc4CCC3C1CC1=C2NC(=S)NC1c1ccc(Cl)cc1 (centres unmarked) [Compound 4b, 2’-Thione-6’-(4-chlorophenyl)-estra-1(10),2,4,16(17)-tetraien-[17,16-d]-pyrimidine-3-ol]			31.8 ± 0.39 µM	311 ± 9.59 µM	45.8 ± 0.49 µM	0.57 ± 0.0097 µM	0.098 ± 0.0009 µM	0.043 ± 0.0018 µM	333 to 335 °C
CC12CCC3c4ccc(O)cc4CCC3C1CC1=C2NC(=N)NC1c1ccc(Cl)cc1 (centres unmarked) [Compound 5b, 2′-Imino-6′-(4-chlorophenyl)-estra-1(10),2,4,16(17)-tetraien-[17,16-d]pyrimidino-3-ol]			22.5 ± 0.24 µM	235 ± 7.76 µM	27.6 ± 0.34 µM	0.31 ± 0.0053 µM	0.088 ± 0.0013 µM	0.029 ± 0.0003 µM	326 to 328 °C
CC12CCC3c4ccc(O)cc4CCC3C1CC1=C2NC(=NC#N)NC1c1ccccc1Cl (centres unmarked) [Compound 6a, 2′-Cyanoimino-6′-(2-chlorophenyl)-estra-1(10),2,4,16(17)-tetraien-[17,16-d]pyrimidino-3-ol]			24.57 ± 0.16 µM	244 ± 7.78 µM	28.47 ± 0.25 µM	0.32 ± 0.0063 µM	0.09 ± 0.0006 µM	0.031 ± 0.0041 µM	223 °C
CC12CCC3c4ccc(O)cc4CCC3C1CC1=C2NC(=NC#N)NC1c1ccc(Cl)cc1 (centres unmarked) [Compound 6b, 2′-Cyanoimino-6′-(4-chlorophenyl)-estra-1(10),2,4,16(17)-tetraien-[17,16-d]-pyrimidino-3-ol]			26.46 ± 0.17 µM	277 ± 8.23 µM	29.5 ± 0.36 µM	0.42 ± 0.0074 µM	0.091 ± 0.0025 µM	0.033 ± 0.001 µM	282 to 284 °C
CC12CCC3c4ccc(O)cc4CCC3C1CC1C2=NN(C(N)=O)C1c1ccccc1Cl (centres unmarked) [Compound 7a, 1-Carbamoyl-1′H-(2’H)-5′-(2-chlorophenyl)-estra-1(10),2,4-trien-[17,16-c]pyrazoline-3-ol]			41.1 ± 0.84 µM	466 ± 17.3 µM	66.7 ± 0.86 µM	0.86 ± 0.0068 µM	0.188 ± 0.0016 µM	0.055 ± 0.0013 µM	298 to 300 °C
CC12CCC3c4ccc(O)cc4CCC3C1CC1C2=NN(C(N)=O)C1c1ccc(Cl)cc1 (centres unmarked) [Compound 7b, 1-Carbamoyl-1’H-(2’H)-5’-(4-chlorophenyl)-estra-1(10),2,4-trien-[17,16-c]pyrazoline-3-ol]			46.2 ± 0.93 µM	512 ± 16.6 µM	77.6 ± 0.97 µM	0.89 ± 0.0099 µM	0.227 ± 0.0004 µM	0.057 ± 0.0005 µM	248 to 250 °C
CC12CCC3c4ccc(O)cc4CCC3C1CC1C2=NN(C(N)=S)C1c1ccccc1Cl (centres unmarked) [Compound 8a, 1-Thiocarbamoyl-1′H-(2′H)-5′-(2-chlorophenyl)-estra-1(10),2,4-trien-[17,16-c]pyrazoline-3-ol]			39.5 ± 0.75 µM	435 ± 14.6 µM	55.4 ± 0.69 µM	0.74 ± 0.0087 µM	0.166 ± 0.0028 µM	0.051 ± 0.0017 µM	294 to 296 °C
CC12CCC3c4ccc(O)cc4CCC3C1CC1C2=NN(C(N)=S)C1c1ccc(Cl)cc1 (centres unmarked) [Compound 8b, 1-Thiocarbamoyl-1′H-(2′H)-5′-(4-chlorophenyl)-estra-1(10),2,4-trien-[17,16-c]pyrazoline-3-ol]			40.4 ± 0.95 µM	446 ± 15.4 µM	64.6 ± 0.78 µM	0.82 ± 0.0078 µM	0.177 ± 0.0041 µM	0.053 ± 0.0023 µM	252 to 256 °C
Oc1cc(O)c2cc(O)c(-c3cc(O)c(O)c(O)c3)[o+]c2c1 [Delphinidin, reference compound]							6.27 ± 0.00076 µM	5.09 ± 0.0012 µM	
Milaplatin [reference compound]	18.43 ± 0.13 µM	18.3 ± 0.34 µM							
